Data as given in patent US20160095837A1, “MODULATION OF MITOCHONDRIAL CALCIUM UNIPORTER ACTIVITY FOR TREATING AND PREVENTING ARRHYTHMIAS” (priority 2014, published 2016).

Test system: mitochondrial Ca2+ concentration ([Ca2+]mito)
Experiment: Mitochondrial Ca2+ measurement with mt-pericam in cultured SAN cells
Type: cell-based, mouse
Conditions: Ru360 dialysis
Protocol: SAN cells were placed in Tyrode's solution at 36±0.5° C. and were identified by their characteristic morphology (spindle or spider shape) and spontaneous activity. SAN cells were identified electrophysiologically by spontaneous action potentials with a slow depolarizing phase 4 and the hyperpolarization-activated current (If).^27 Spontaneous action potentials, If and ICa were recorded using the perforated (amphotericin B or β-escin in studies requiring dialysis of Ru360 and/or ATP) patch-clamp technique^28 on single SAN cells at 36±0.5° C. in Tyrode's solution. Intracellular Ca^2+ transients were recorded from single SAN cells using Fura-2 AM excited at 340 nm and 380 nm and emitted and 510 nm. Endogenous NADH from single SAN cells was measured by excitation at 350 nm and recording emitted light at 460 nm.^29 Mitochondrial Ca^2+ was measured at 535 nm from mt-pericam expressing SAN cells exited at 415 nm^20. Mitochondrial Ca^2+ entry was measured in cell membrane permeabilized cardiomyocytes isolated from DN-MCU transgenic, wild type mice and from HEK293 cells using Calcium green-5N^30.
Freshly isolated mouse SAN tissue was cut into small pieces and put into 35 mm tissue culture plates with DMEM. […] Expression of the recombinant ratio-5mt-pericam and DN-MCU in SAN cells was detected by GFP fluorescence. […]

(μ)[(HCO2)(NH3)4Ru]2OCl3) [Ru360]
ISO-induced increase in [Ca2+]mito: prevented
